Structures can show the parent of a compound that is named as a salt. Where two headings read alike, the source gives them in different places.
Experiments:
[1] = PGE2 activity after storage in polyethylene glycol comparison formulations; format: physicochemical
Protocol: By comparison, 1 mg. PGE2 and 1 ml. polyethylene glycol 400 assays 54% PGE2 activity after storage for two months at 45° C.; 0.2 mg. PGE2 in 2.7598 g. polyethylene glycol 4,000 assays 70% PGE2 activity after storage for 6 months at room temperature and 72% PGE2 activity after storage for 3 months at 45° C.; a suppository of 0.2 mg. PGE2 in 2.7298 g. base comprising 2% polyethylene glycol 4,000 and 98% polyethylene glycol 1,000 assays 62% PGE2 activity after storage for six months at room temperature; a formulation of PGE2 in polyethylene glycol 400 assays 73% PGE2 activity after 4 months at room temperature; and a formulation of PGE2 in polyethylene glycol 4000 assays 82% PGE2 activity after 5 months at room temperature.

[2] = PGE2 activity after storage at 80° C in polyethylene glycol-550-dimethyl ether; format: physicochemical; conditions: 1 mg PGE2, 0.01% edetic acid, 0.01% BHA, 0.01% BHT per ml polyethylene glycol-550-dimethyl ether, nitrogen, 18 days
Protocol: The following formulations are prepared having 1 mg. PGE2 per ml. of polyethylene glycol-550-dimethyl ether, and the additional material(s) as set forth below.
A formulation is prepared having 1 mg. PGE2 , 0.01% edetic acid, 0.01% BHA and 0.01% BHT per ml. polyethylene glycol-550-dimethyl ether, and sealed in an ampule under nitrogen atmosphere.

[3] = literature: Brummer 1971; Karim et al. 1968; cited from earlier work
[4] = PGE2 activity after storage at 60° C in glyme or triethylene glycol-dimethyl ether; format: physicochemical; conditions: nitrogen
Protocol: A formulation is prepared having 1 mg. PGE2 per ml. 1,2-dimethoxyethane. After 12 days storage at 60° C. under a nitrogen atmosphere, the PGE2 assays 100% of its initial activity.
A formulation is prepared having 1 mg. PGE2 per ml. of triethylene glycol-dimethyl ether. After 5 days storage at 60° C. under a nitrogen atmosphere, the PGE2 assays 100% of its initial activity.

[5] = General chemical stability of prostaglandins; format: physicochemical; conditions: with dimethyl ether of polyethylene glycol 550, extended period above room temperature
Excerpt: See, for example, Brummer J. Pharm. Pharmac. 23, 804 (1971), and Karim et al., European J. Pharmacol. 4, 416 (1968). It would, therefore, be desirable to have a prostaglandin preparation wherein the prostaglandin material is stabilized by the vehicle material.
The above and still further objects, features, and advantages of the present invention are achieved, in accordance therewith, by admixing a pharmaceutically active quantity of an active medicament material with a dialkylated mono- or poly-alkylene glycol optionally including an antioxidant for the glycol vehicle.

[6] = in several polyethylene glycols, cited from earlier work
[7] = Decomposition of aspirin vs. time at 80° C in vehicle, with extrapolated shelf-life; format: physicochemical; conditions: for shelf-life at 25° C: extrapolated from 80° C
Protocol: A formulation is prepared having 0.5 g. aspirin and 0.05% BHA per 1.0 g. polyethylene glycol-750-dimethyl ether, and stored at 80° C. Decomposition of the aspirin is measured vs. time. The time for 10% decomposition is 27 hours. This reflects approximately a 30 month shelf-life at 25° C. This can be compared to a published report[Jun et al., J. Pharm. Sec.
The time for 10% decomposition (t90) is 24 hours. This reflects approximately a 30 month shelf-life at 25° C. Thus, this Example describes the preparation of a liquid aspirin formulation which is stable for long periods of time at or about room temperature.
Sciences, 53, 815-818 (July, 1964).

[8] = Chloramphenicol activity after storage at 80° C, with extrapolated shelf-life; conditions: for chloramphenicol percent of initial activity: 80° C
[9] = Nystatin activity after storage at 80° C; format: physicochemical; conditions: for nystatin percent of initial activity: 0.5 mg/ml in polyethylene glycol-350-dimethyl ether, 0.05% BHA, under air
Excerpt: Thus, the polyethylene glycol-350-dimethyl ether has a significant stabilizing effect on nystatin when compared to polyethylene glycol 400.

[10] = Oleic acid diethanolamide activity after storage at 80° C, with extrapolated shelf time; format: physicochemical
lipase = assay: In vitro lipase inhibition; format: biochemical
[11] = Storage stability of tetracyclines in cream-like and comparison formulations; conditions: for oxytetracycline hydrochloride percent of initial activity: Example XXXIX cream; for tetracycline activity remaining: after two weeks, 20160 min; for tetracycline activity remaining / stability of comparison formulation: room temperature
[12] = Palmitic acid diethanolamide stability at 80° C; format: physicochemical; conditions: under air, 14 days
Excerpt: The formulation remains undecomposed after 14 days. The same result is attained with a formulation which additionally contains 0.05% BHA.

[13] = In vitro human skin penetration of labeled (H^3) tetracycline hydrochloride; conditions: cream-like preparation vs 0.5% in 75% propylene glycol and 0.05% in pH 6.6 buffer (both saturated solutions)
[14] = polyethylene glycol 400 in place of dialkylated vehicle, 2 days
[15] = 0.05% tetracycline hydrochloride in pH 6.6 buffer
[16] = 0.5% tetracycline hydrochloride in 75% propylene glycol

SMILES: CCCCC[C@H](O)/C=C/[C@H]1[C@H](O)CC(=O)[C@@H]1C/C=C\CCCC(=O)O [PGE2, 11α,15α-dihydroxy-9-keto-5,13-prostadienoic acid]
- PGE2 activity after storage ([1]; 0.2 mg PGE2 in 2.7598 g polyethylene glycol 4,000, 3 months, 45° C, 129600 min): 72%
- PGE2 activity after storage ([1]; 0.2 mg PGE2 in 2.7598 g polyethylene glycol 4,000, 6 months, room temperature, 259200 min): 70%
- PGE2 activity after storage ([1]; 1 mg PGE2 and 1 ml polyethylene glycol 400, two months, 45° C, 86400 min): 54%
- PGE2 activity after storage ([1]; in polyethylene glycol 400, 4 months, room temperature, 172800 min): 73%
- PGE2 activity after storage ([1]; in polyethylene glycol 4000, 5 months, room temperature, 216000 min): 82%
- PGE2 activity after storage ([1]; suppository, 0.2 mg PGE2 in 2.7298 g base (2% polyethylene glycol 4,000, 98% polyethylene glycol 1,000), six months, room temperature, 259200 min): 62%
- PGE2 percent of initial activity [2]: 100%
- chemical stability [3]: relatively unstable
- PGE2 percent of initial activity ([4]; 1 mg/ml in 1,2-dimethoxyethane, 12 days): 100%
- PGE2 percent of initial activity ([4]; 1 mg/ml in triethylene glycol-dimethyl ether, 5 days): 100%
- chemical stability after storage [5]: high degree of chemical stability

SMILES: CC(=O)Oc1ccccc1C(=O)O [aspirin, acetylsalicylic acid]
- time for 10% decomposition ([6]; 80° C, Jun et al. 1972): 2 h
- shelf-life at 25° C ([6]; from published report Jun et al. 1972): 3.5 months
- time for 10% decomposition (t90) ([7]; 100 mg aspirin per ml polyethylene glycol-350-dimethyl ether, under air, 80° C): 24 h
- time for 10% decomposition ([7]; 0.5 g aspirin and 0.05% BHA per 1.0 g polyethylene glycol-750-dimethyl ether, 80° C): 27 h
- shelf-life at 25° C ([7]; polyethylene glycol-350-dimethyl ether, under air): ~30 month
- shelf-life at 25° C ([7]; polyethylene glycol-750-dimethyl ether with 0.05% BHA): ~30 month

SMILES: O=C(N[C@H](CO)[C@H](O)c1ccc([N+](=O)[O-])cc1)C(Cl)Cl [chloramphenicol]
- chloramphenicol percent of initial activity ([8]; 0.5 mg/ml in polyethylene glycol-350-dimethyl ether, 0.05% BHA, under air, 2 days): 95%
- chloramphenicol percent of initial activity ([8]; 0.5 mg/ml in polyethylene glycol-350-dimethyl ether, 0.05% BHA, under air, 5 days): 66%
- chloramphenicol percent of initial activity [8, 14]: 50%
- chloramphenicol percent of initial activity ([8]; polyethylene glycol 400 in place of dialkylated vehicle, 5 days): less than 20%
- shelf-life at room temperature ([8]; polyethylene glycol-350-dimethyl ether, 0.05% BHA, extrapolated from 80° C): at least 1 year

SMILES: C[C@@H]1[C@H](O)[C@@H](C)/C=C/C=C/CC/C=C/C=C/C=C/C=C/C(O[C@H]2O[C@H](C)[C@@H](O)[C@H](N)[C@@H]2O)CC2O[C@](O)(CC(O)C(O)CCC(O)CC(O)CC(O)CC(=O)O[C@H]1C)CC(O)C2C(=O)O (stereo partly drawn) [nystatin]
- nystatin percent of initial activity ([9]; 2 days): 56%
- nystatin percent of initial activity ([9]; 5 days): less than 40%
- decomposition (loss of activity) [9, 14]: total decomposition

SMILES: CCCCCCCC/C=C\CCCCCCCC(=O)N(CCO)CCO [oleic acid diethanolamide]
- oleamide percent of initial activity ([10]; 2 mg/ml in 1,2-dimethoxyethane with 0.025% BHT and 0.025% BHA, 5 weeks, 80° C, 50400 min): 96%
- shelf time at 25° C ([10]; approximately, 1,2-dimethoxyethane with BHT and BHA, extrapolated from 80° C): 3-4 years
- lipase inhibition (lipase): inhibits lipase

SMILES: CN(C)C1C(=O)C(C(N)=O)=C(O)C2(O)C(=O)C3=C(O)c4c(O)cccc4C(C)(O)C3C(O)C12 (stereo not drawn) [oxytetracycline hydrochloride]
- oxytetracycline hydrochloride percent of initial activity ([11]; 2 months, 45° C, 86400 min): 92%
- oxytetracycline hydrochloride percent of initial activity ([11]; 3 months, 37° C, 129600 min): 92%
- oxytetracycline hydrochloride percent of initial activity ([11]; 4 months, 45° C, 172800 min): 75%

SMILES: CCCCCCCCCCCCCCCC(=O)N(CCO)CCO [palmitic acid diethanolamide]
- decomposition after storage ([12]; 5 mg/ml in polyethylene glycol-350-dimethyl ether with 0.05% BHA): undecomposed
- decomposition after storage ([12]; 5 mg/ml in polyethylene glycol-350-dimethyl ether): undecomposed

SMILES: CN(C)C1C(=O)C(C(N)=O)=C(O)C2(O)C(=O)C3=C(O)c4c(O)cccc4C(C)(O)C3CC12 (stereo not drawn) [tetracycline hydrochloride]
- skin penetration [13]: equivalent skin penetration
- tetracycline activity remaining [11, 15]: less than 50%
- stability of comparison formulation [11, 15]: highly unstable
- tetracycline activity remaining [11, 16]: less than 50%
- stability of comparison formulation [11, 16]: highly unstable
- tetracycline hydrochloride percent of initial activity ([11]; Example XXXVIII cream: 1.0% drug, 79.0% polyethylene glycol-350-dimethyl ether, 20.0% polyethylene glycol-6000-dimethyl ether, 0.05% BHA, 4 months, 45° C, 175200 min): 98%

Reference: patent publication US4011313A, “Medicament preparations” (Syntex (U.S.A.) Inc., priority 1975, dated 1977)
